This assay deals with 885724-159-R-J1-PDC complex spheroid viability. As to the kind of experiment: Anticancer human tumor 885724-159-R-J1-PDC patient-derived pancreatic adenocarcinoma cell line growth inhibition [GQUAD]. The conditions noted are these: for viability, T/C: stronger effect = lower value. The source says: DNA G-quadruplex Stabilizer Agents in Combinations in Complex Spheroids
A high-throughput screen of multi-cell type tumor spheroids was designed to identify active combinations of DNA G-quadruplex stabilizer agents and targeted small molecules. Complex spheroids include a stromal component modeled by human endothelial cells (HUVEC) and fibroblasts modeled by human mesenchymal stem cells (MSCs). The concentration ranges selected for each drug and investigational agent were based upon clinically achievable concentrations if the clinical Cmax of the agent was known.
Compounds. The drugs and investigational agents: pidnarulex (CX-5461; NSC782164), APTO-253 (NSC789042), BRACO-19 (NSC847499), peposertib (NSC802822), ceralasertib (NSC780249), elimusertib (NSC800525), camonsertib (NSC841442), AZD-1390 (NSC803789), olaparib (NSC753686), talazoparib (NSC767125), ART-558 (NSC835418), sotorasib (NSC818433), MRTX-1133 (NSC836407), SN-38 (NSC673596), topotecan (NSC609699), etoposide (NSC141540), doxorubicin (NSC123127), gemcitabine (NSC613327), 5-fluorouracil (NSC19893), paclitaxel (NSC125973), vemurafenib (NSC761431), panobinostat (NSC761190), R-306465 (JNJ-16241199; NSC773264), adavosertib (NSC754352), TP-3654 (NSC805149), carboplatin (NSC241240), KSQ-4279 (NSC840948), and staurosporine (NSC755774) were obtained from the National Cancer Institute (NCI) Developmental Therapeutics Program Chemical Repository (34). The FDA-approved anticancer drug set is available from the NCI Developmental Therapeutics Program. […] The stock solutions were prepared in dimethyl sulfoxide (DMSO, Sigma-Aldrich, St. Louis, MO, cat. D2650) at 800-fold the tested concentration and stored at -70 degrees C prior to their use. All drugs and investigational agents were tested over a range starting from a high concentration at or near the clinical Cmax and decreasing in half-log increments. If the clinical Cmax for an agent had not been determined, the highest concentration tested was 10 microM.
2.3 Cell Culture. All cells were maintained in an incubator at 37 degrees C and 5% CO2 with 95% humidity. The PDC lines were cultured according to standard operating procedures established by the NCI PDMR. All PDCs were thawed and cultured in Matrigel-coated flasks prepared with a working solution of 1X Ham's F-12 nutrient mix, without supplementation (Invitrogen, cat. 11765054), 100 U/mL penicillin-streptomycin (Invitrogen, cat. 15140122), and 2.5% Matrigel (Corning Inc., cat. 354248) for the first three passages. The 857933-349-R-J2-PDC line was cultured in 6C/Colon 1B media, which includes advanced DMEM/F-12 (Thermo Fisher Scientific, cat. 12634028), 10 mM HEPES (Thermo Fisher Scientific, cat. 15630080), 1X GlutaMAX supplement (Thermo Fisher Scientific, cat. 35050061), 0.1 mg/mL primocin (InvivoGen, cat. ant-pm-2), 10% defined fetal bovine serum, heat inactivated (HyClone Laboratories Inc., cat. SH30070.03HI), 50% L-WRN conditioned media (ATCC, cat. CRL-3276), 1.25 mM N-Acetyl-L-cysteine (Sigma-Aldrich, cat. A9165), 10 mM nicotinamide (Sigma-Aldrich, cat. N0636), 1X B-27 supplement (Thermo Fisher Scientific, cat. 17504044), 1X N-2 supplement (Thermo Fisher Scientific, cat. 17502048), 10 microM Y-27632 dihydrochloride (Tocris Bioscience, cat. 1254), and 50 ng/mL human EGF recombinant protein (Thermo Fisher Scientific, cat. PHG0311). The 485176-168-R4-J1-PDC line was cultured in Panc media, which includes all 6C/Colon 1B media components plus 100 ng/mL human FGF-10 (Thermo Fisher Scientific, cat. 100-26), 500 nM SB-431542 (Selleckchem, cat. S1067), and gastrin (Tocris, cat. 3006).
[…]

pIC50: −log10 of the molar value. Several values for one entry are separate records, joined by “and”; a condition that tells them apart may be missing. Identical values can stand only once.
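Note: spheroids exposed to agents for seven days before readout.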
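Throughout, for viability, T/C: percent of vehicle control viability where 100% = DMSO wells.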

For orientation: pIC50 means the negative decadic logarithm of the IC50, by convention in mol/L. For orientation: viability, T/C means the ratio of treated to control. Consider `Cc1cccc(N(C)C(=O)C2C(O)CCN2c2nc(C)cc(C(F)(F)F)c2C#N)c1` (configuration not stated) + CN(C)c1ccc(Nc2c3ccc(NC(=O)CCN4CCCC4)cc3nc3cc(NC(=O)CCN4CCCC4)ccc23)cc1, for which the negative-log IC50 (pIC50) was under 5.00 (curve of first compound, second compound 0.0316 µM); under 5.00 (curve of first compound, second compound 0.1 µM); under 5.00 (curve of first compound, second compound 0.316 µM); under 5.00 (curve of first compound, second compound 1 µM); under 5.00 (curve of first compound, second compound 3.16 µM); under 5.00 (curve of first compound, second compound 10 µM). The viability, T/C reads like this: (second compound 0.0316 µM, first compound 0.0316 µM) 95.6%; (second compound 0.0316 µM, first compound 0.1 µM) 98%; (second compound 0.0316 µM, first compound 0.316 µM) 105%; (second compound 0.0316 µM, first compound 1 µM) 92.7%; (second compound 0.0316 µM, first compound 3.16 µM) 108%; (second compound 0.0316 µM, first compound 10 µM) 97.7%. The viability, T/C is 90.3% (second compound 0.1 µM, first compound 0.0316 µM); 103% (second compound 0.1 µM, first compound 0.1 µM); 104% (second compound 0.1 µM, first compound 0.316 µM); 90.4% (second compound 0.1 µM, first compound 1 µM); 90% (second compound 0.1 µM, first compound 3.16 µM); 101% (second compound 0.1 µM, first compound 10 µM). Also, the viability, T/C by setting is: (second compound 0.316 µM, first compound 0.0316 µM) 108%; (second compound 0.316 µM, first compound 0.1 µM) 86.2%; (second compound 0.316 µM, first compound 0.316 µM) 88.3%; (second compound 0.316 µM, first compound 1 µM) 87.1%; (second compound 0.316 µM, first compound 3.16 µM) 100%; (second compound 0.316 µM, first compound 10 µM) 102%. For the same compound, the viability, T/C reads like this: (second compound 1 µM, first compound 0.0316 µM) 86%; (second compound 1 µM, first compound 0.1 µM) 80.5%; (second compound 1 µM, first compound 0.316 µM) 83.3%; (second compound 1 µM, first compound 1 µM) 82.4%; (second compound 1 µM, first compound 3.16 µM) 89.7%; (second compound 1 µM, first compound 10 µM) 83%. Besides, the viability, T/C runs as follows: (second compound 3.16 µM, first compound 0.0316 µM) 79.8%; (second compound 3.16 µM, first compound 0.1 µM) 68.8%; (second compound 3.16 µM, first compound 0.316 µM) 92.3%; (second compound 3.16 µM, first compound 1 µM) 81%; (second compound 3.16 µM, first compound 3.16 µM) 86.1%; (second compound 3.16 µM, first compound 10 µM) 86.5%. Further, the viability, T/C by setting is: (second compound 10 µM, first compound 0.0316 µM) 77%; (second compound 10 µM, first compound 0.1 µM) 79.3%; (second compound 10 µM, first compound 0.316 µM) 75.6%; (second compound 10 µM, first compound 1 µM) 80.2%; (second compound 10 µM, first compound 3.16 µM) 78.2%; (second compound 10 µM, first compound 10 µM) 56.5%.

`CC(=O)O[C@H]1C(=O)[C@@]2(C)[C@H]([C@H](OC(=O)c3ccccc3)[C@]3(O)C[C@H](OC(=O)[C@H](O)[C@@H](NC(=O)c4ccccc4)c4ccccc4)C(C)=C1C3(C)C)[C@]1(OC(C)=O)CO[C@@H]1C[C@@H]2O`: the viability, T/C reads like this: (compound 0.0316 µM) 100% and 92% and 97.8%; (compound 0.1 µM) 66.6% and 80.5% and 89.4%; (compound 0.316 µM) 82.2% and 93.6% and 90.7%; (compound 1 µM) 83.6% and 86.1% and 96.7%; (compound 3.16 µM) 89.6% and 91% and 100%; (compound 10 µM) 93% and 104% and 107%. Besides, the negative logarithm of the IC50 (pIC50) (curve of compound) is under 5.00.

On to `Cc1cccc(N(C)C(=O)C2C(O)CCN2c2nc(C)cc(C(F)(F)F)c2C#N)c1` (configuration not stated), for which the viability, T/C was 98.5% and 93% and 97.9% (compound 0.0316 µM); 93.8% and 90.7% and 89.8% (compound 0.1 µM); 90.9% and 103% and 97% (compound 0.316 µM); 92.1% and 105% and 93.5% (compound 1 µM); 97.1% and 97.4% and 96.8% (compound 3.16 µM); 95.8% and 104% and 89.9% (compound 10 µM). For the same compound, where the note is “curve of compound”, the negative-log IC50 (pIC50) was under 5.00.

For the compound `C#Cc1c(F)ccc2cc(O)cc(-c3ncc4c(N5CC6CCC(C5)N6)nc(OCC56CCCN5CC(F)C6)nc4c3F)c12` (configuration not stated), the viability, T/C reads like this: (compound 0.0316 µM) 97.3% and 99.6% and 91.8%; (compound 0.1 µM) 101% and 92.4% and 93%; (compound 0.316 µM) 89.8% and 94.6% and 104%; (compound 1 µM) 90.2% and 88.2% and 81.5%; (compound 3.16 µM) 53.6% and 55.8% and 58.6%; (compound 10 µM) 30% and 25.7% and 22.7%. The pIC50 (curve of compound) is 5.42 and 5.40 and 5.39.

Turning to `C=CC(=O)N1CCN(c2nc(=O)n(-c3c(C)ccnc3C(C)C)c3nc(-c4c(O)cccc4F)c(F)cc23)C(C)C1` (configuration not stated), the viability, T/C by setting is: (compound 0.0316 µM) 96.5% and 93.7% and 94.2%; (compound 0.1 µM) 88.8% and 90% and 101%; (compound 0.316 µM) 98.2% and 110% (2×); (compound 1 µM) 117% and 108% and 105%; (compound 3.16 µM) 95.2% and 106% and 104%; (compound 10 µM) 87% and 89.9% and 96.3%. For the same compound, the negative-log IC50 (pIC50) (curve of compound) was under 5.00.

Take `Cc1[nH]c2ccccc2c1CCNCc1ccc(/C=C/C(=O)NO)cc1`: the viability, T/C is, setting by setting: (compound 0.000999 µM) 92.3% and 106% and 93.5%; (compound 0.00316 µM) 91.4% and 98.9% and 103%; (compound 0.00999 µM) 95.6% and 86.5% and 91.7%; (compound 0.0316 µM) 108% and 83.9% and 98.7%; (compound 0.0999 µM) 95.6% and 86.5% and 74.5%; (compound 0.316 µM) 47.5% and 47.9% and 42.7%. Besides, the pIC50 (curve of compound) is 6.53 and < 6.50 and 6.62.

These data come from PubChem BioAssay AID2060502 (Molecular Pharmacology Branch, DTP, NCI, 2025).
